Values joined by “and” are separate entries in the source; they are usually repeats but may differ in a detail not shown here. Equal entries are not always repeated. Active and inactive are the calls of the source. The calls are words filed in the database; no cut-off is given here.
Assays:
[1] = system: Opioid receptors; mu & kappa; settings: Cavia porcellus; Ileum
Mus musculus [2] = organism: Mus musculus; test: Opioid antagonist activity of compound was measured as inhibiting the binding of normorphine to mouse vas deferens; assay type: functional
Mus musculus [3] = organism: Mus musculus; test: Opioid agonistic activity was measured in mouse vas deferens; assay type: functional
Cavia porcellus = organism: Cavia porcellus; test: Opioid agonistic activity was measured in guinea pig ileum; assay type: functional
Mus musculus [4] = organism: Mus musculus; test: Opioid agonistic activity was measured in mouse vas deferens.; assay type: functional
Mus musculus [5] = organism: Mus musculus

`O=C1C=C[C@@]2(Br)C3Cc4ccc(O)c5c4C2(CCN3CC2CC2)[C@H]1O5` (some centres undefined) was tested, and the Ke [1] was 1.36 nM and the Ke (Mus musculus [2]) was 2.35 nM and 2.83 nM.
`O=C1C=C[C@@]2([N+](=O)[O-])C3Cc4ccc(O)c5c4C2(CCN3CC2CC2)[C@H]1O5` (some centres undefined) gave an IC50 (Mus musculus [3]) of 330 nM, a Ke [1] of 4.44 nM and an IC50 (Cavia porcellus) of 41.2 nM. For the same molecule, the Ke (Mus musculus [2]) was 14.9 nM and the IC50 (Mus musculus [4]) was 580 nM.
`Oc1ccc2c3c1O[C@H]1[C@@H](O)C=C[C@H]4C(C2)N(CC2CC2)CCC341` (some centres undefined) gave a Ke [1] of 0.8 nM and an IC50 (Cavia porcellus) of 2.16 nM.
Work on `C=CCN1CC[C@]23c4c5ccc(O)c4O[C@H]2[C@@H](O)C=C[C@H]3[C@H]1C5` [NALORPHINE] yielded an IC50 (Mus musculus [3]) of 535 nM, a Ke [1] of 4.47 nM and an IC50 (Cavia porcellus) of 24.3 nM. The Ke (Mus musculus [2]) was 28.7 nM.
`Oc1ccc2c3c1O[C@H]1[C@@H](O)C=C[C@@]4(S)C(C2)N(CC2CC2)CCC314` (some centres undefined) gave an IC50 (Mus musculus [3]) of 218 nM, a Ke [1] of 1.69 nM and an IC50 (Cavia porcellus) of 39.1 nM. The Ke (Mus musculus [2]) was 22.9 nM and 20 nM.
For `CN1CC[C@]23c4c5ccc(O)c4O[C@H]2[C@@H](O)C=C[C@H]3[C@H]1C5`, the Ke (Mus musculus [5]) was “inactive”.
`O=C1C=C[C@@]2(Cl)C3Cc4ccc(O)c5c4C2(CCN3CC2CC2)[C@H]1O5` (some centres undefined) showed a Ke [1] of 3.92 nM and a Ke (Mus musculus [2]) of 16.6 nM.
`O=C1CC[C@@]2(O)[C@H]3Cc4ccc(O)c5c4[C@@]2(CCN3CC2CC2)[C@H]1O5` [NALTREXONE] was tested, and the Inhibition (Cavia porcellus) was 25%.
`C=CCN1CC[C@]23c4c5ccc(O)c4O[C@H]2C(=O)CC[C@@]3(O)[C@H]1C5` [NALOXONE] was tested, and the Ke (Mus musculus [2]) was 3.66 nM.
For `Oc1ccc2c3c1O[C@H]1[C@@H](O)C=C[C@@]4(O)C(C2)N(CC2CC2)CCC314` (some centres undefined), the Ke [1] was 2.35 nM and the Ke (Mus musculus [2]) was 10.5 nM and 9 nM.

Reference: ChEMBL document CHEMBL1121787, “Some 14 beta-substituted analogues of N-(cyclopropylmethyl)normorphine” (J Med Chem, 1981)
